For orientation: melting point means the temperature, or range, at which the solid turns liquid.

On to `CC(=O)Oc1cc(C(=O)N2CCC(C(=O)C3CCCCC3)CC2)c([N+](=O)[O-])cc1OC(C)=O`, for which the melting point was 160 to 165 °C.
The molecule `CC(C)(O)C1CCC(CNC(=O)c2cccnc2Oc2ccc(F)cc2)CC1` (stereo unspecified) had a melting point of 78 to 80 °C.
The same measure for `Cc1ccn(NS(=O)n2ccnc2)c(=N)c1` (stereo unspecified): 176 to 177 °C.
`CN(C)C=Nc1ccc(-c2ccc(C(F)(F)F)cc2)cn1` gave a melting point of 154 °C.
Turning to `CCOC(=O)C1CCN(C(N)=S)CC1`, the melting point fell in the range of 97 to 98 °C.
Consider `CN(Cc1ccccc1)CC1CN(c2c(F)cc3c(=O)c(C(=O)O)cn(C4CC4)c3c2F)CCO1` (stereo unspecified), for which the melting point lay in the range of 155 to 157 °C.
For `Clc1ccc(CN2CCN=C2C(Cn2ccnc2)c2ccccc2)c(Cl)c1` (stereo unspecified), the melting point was in the range of 120 to 135 °C.
The same measure for `O=C(Nc1cccc(C(F)(F)F)c1)N1CCCCc2cc(O)ccc21`: 172 to 173 °C; for `CS(=O)(=O)c1ccc(-c2cnn(-c3cccc(Cl)c3)c(=O)c2CCc2ccccc2)cc1`: 142 to 145 °C; for `Cc1[nH]c(=S)n(Nc2cccc(F)c2)c1-c1ccccc1`: 226 °C.
In the case of `CC1(C)Cc2ccccc2C1c1cnccc1C(=O)O` (stereo unspecified), the melting point fell in the range of 254 to 257 °C.
Regarding `CN(Cc1cccc(-c2ccc(CC3SC(=O)NC3=O)cc2)c1)C(=O)CCCCC(=O)c1ccccc1` (stereo unspecified), the melting point worked out at 48 °C.
`COC(=O)c1cc(Br)c(O)c(O)c1Cl` returned a melting point of 103 °C.
The same measure for `COCCOC12CC(CO)CN(C)C1Cc1c[nH]c3cccc2c13` (stereo unspecified): 188 to 193 °C; for `O=C(c1ccccc1Cl)c1cc(Cl)ccc1-n1ccnc1`: 146 to 148 °C.
For `CC(C)(C)OC(=O)COC1=CC(=NS(=O)(=O)c2cccs2)c2ccccc2C1=O`, the melting point is 153 to 155 °C.
As for `N#CC1(C(O)(Cn2cncn2)c2ccc(Cl)cc2)CC1` (stereo unspecified), the melting point was found to be 107 °C.
`Nc1c2c(nc3[nH]c4ccccc4c13)CCCC2=O` showed a melting point above 300 °C.
The same measure for `O=C(Nc1cc(Cl)c(O)c(Cl)c1)c1ccc(O)cc1O`: 235 to 237 °C; for `CN1N=C(c2ccc(F)cc2)c2cc(F)ccc2CS1(=O)=O`: 169 to 171 °C; for `CCCCc1nc(I)c(CO)[nH]1`: 166 °C.
Molecule `CC(=O)Nc1cccc(-c2ccnc3c(C(=O)c4cccs4)cnn23)c1` gave a melting point of 245 to 247 °C.
Next, `CC(C)Oc1ccc(-c2nn(C(C)c3oc4cccc(N5CCOCC5)c4c(=O)c3-c3cccc(F)c3)c3ncnc(N)c23)cc1F` (stereo unspecified): 227 to 229 °C; `O=S(=O)(CCOc1ccc(Cl)cc1)c1ccc(Cl)cc1`: 108 °C; `CCCCCCCCCCCCCCCCCCS(=O)c1cc2ccccc2cc1OC(C)=O` (stereo unspecified): 91 to 93 °C.
The molecule `COc1ccc(-c2c3ccccc3cc3sc4ccccc4c23)cc1C#N` came in with a melting point of 230 to 232 °C.
Next, `CCOC(=O)C(=O)C(C#N)Cc1ccccc1` (stereo unspecified): 80 to 83 °C; `CCCCCCCNC(=O)Nc1ccccc1C(=O)NCC1CCN(C(c2ccccc2)c2ccccc2)CC1`: 146 to 148 °C.
In turn, `C=CCN(C(=O)C(C#N)=CNC(=N)N1CC(C)(C)NC1=O)c1cccc(C(F)(F)F)c1` returned a melting point of 184 to 185 °C.
The molecule `COc1nccc2c1C(C)(O)c1c([nH]c3ccncc13)C2(C)O` (stereo unspecified) gave a melting point above 250 °C.
Next, `CN(C)c1ccc(CNC(=O)c2cccnc2Oc2ccc(F)cc2)cc1`: 99.5 to 102 °C.
The same measure for `O=C(Nc1ccc(C(=O)N2Cc3cccnc3Oc3ccccc32)cn1)c1ccccc1-c1ccccc1`: 107 to 114 °C; for `COCC(C1CC1)n1cc(Cl)nc(Nc2cc(C)c(OC(F)F)nc2C)c1=O` (stereo unspecified): 103 to 104 °C.
The molecule `CCCC(OC)c1ccc(Cl)c2nc3n(c12)CCCN3c1c(C)cc(Cl)cc1Cl` (stereo unspecified) came in with a melting point of 151 to 152 °C.
As for `Cc1nc2nccc(C(C)Oc3ccc(Cl)cc3)n2n1` (stereo unspecified), the melting point is 138 °C.
The same measure for `CCOCOC(CCC(C(=O)NC)C(C)C(O)c1ccccc1)c1ccc(F)cc1` (stereo unspecified): 91 to 92 °C; for `CCN1C[C@@H](O)[C@H](N(C)C(=O)c2ccc(Cl)cc2)C1` (relative stereo): 91 to 93 °C; for `Cn1c(COc2ccc(CC3SC(=O)NC3=O)cc2)nc2ccc(OCCc3ccc(N)cc3)cc21` (stereo unspecified): 184 to 188 °C.
Next, `Nc1c2c(nc3cc(F)ccc13)CCCC2O` (stereo unspecified): 203 to 206 °C.
Consider `CCC(=O)Nc1ccc(OCc2nc(Cl)ccc2Cl)cc1`, for which the melting point was 169 to 171 °C.
In turn, `CC(C)c1ccc(C(=O)c2ccc([N+](=O)[O-])cc2)cc1` returned a melting point of 95 °C.
Next, `COc1ccc(Cc2cnc(NCCSCc3csc(CN(C)C)n3)[nH]c2=O)cn1`: 137 to 138 °C; `Cc1c(Cl)cccc1S(=O)O`: 112 °C; `O=C1CCN(C(=O)c2cc(C(F)(F)F)cc(C(F)(F)F)c2)CC1`: 155 to 157 °C.
With `NC(=O)CC[C@H](Nc1ccc(CC(=O)O)cc1)C(=O)O`, the melting point fell in the range of 198 to 200 °C.
Next, `O=c1cc2c(n[nH]1)CCc1cc(O)ccc1-2`: above 300 °C; `COC(=O)c1cccc(-c2nnn(Cc3ccc(OC)cc3)n2)c1`: 105 to 106 °C; `COc1ccc(C(=O)Nc2ccc3ccc(OC(C)C)nc3n2)cc1`: 78 °C.
Next, `CCc1ccc(-c2ccc3c(c2)C=C(C(=O)Nc2ccc(CN(C)C4CCOCC4)cc2)CCO3)cc1`: 181 to 182 °C.
The same measure for `C=CCOC(=O)CSc1cccc(NC(=O)NCC(=O)N(CC(=O)OC(C)(C)C)c2ccccc2C(=O)c2ccccc2)c1`: 155 to 157 °C; for `Cc1cc(Cc2cc(C(F)(F)F)cc(C(F)(F)F)c2)ccc1NC(=O)c1cccc(Cl)c1C(=O)NC(C)CS(C)=O` (stereo unspecified): 162 to 165 °C.
In the case of `CC(=O)Nc1c(C(=O)c2cc(Cl)ccn2)[nH]c2cc(Cl)ccc12`, the melting point was in the range of 201 to 202 °C.
Turning to `CC(=O)Nc1nc(OCc2cccs2)ncc1F`, the melting point fell in the range of 134 to 136 °C.
Next, `CCOC(=O)c1cn(-c2nc(NC(C)(C)C)c(F)cc2F)c2c(Br)c(F)c(F)cc2c1=O`: 198 to 203 °C.
Next, `CCCOCCOc1cccc(-c2ccc3c(c2)C=C(C(=O)Nc2ccc(CN(C)C4CCOCC4)cc2)CCS3(=O)=O)c1`: 166 to 167 °C.
`O=C(CCO)N1c2ccccc2CCC1CN1CCN(c2cccc3[nH]ccc23)CC1` (stereo unspecified) gave a melting point of 58 to 61 °C.
Next, `CC(C)(C)OC(=O)Nc1sc(-c2cncc(F)c2)nc1I`: 148 to 149 °C; `COC(=O)c1nn(-c2cccc(NC(C)=O)c2)c(=O)n(Cc2ccc(Cl)cc2)c1=O`: 193 °C.
The same measure for `COC(=O)ON(C)C(=O)C(C)Nc1c([N+](=O)[O-])cc(C)cc1[N+](=O)[O-]` (stereo unspecified): 112 to 113 °C; for `CC(C)(C)OC(=O)NCC1(C(=O)O)CC1`: 104 to 106 °C.
The molecule `C#CCOc1ccc(C(=O)C=Cc2cccs2)c(O)c1` had a melting point of 83 to 85 °C.
With `CC(C)Cn1c(C(=O)O)c(-c2ccccc2F)c2cc(OCc3ccccc3)ccc2c1=O`, the melting point was 178 to 179 °C.
The same measure for `O=C(NCCCc1c[nH]c2ccc(OCc3ccc4ccccc4n3)cc12)OCc1ccccc1`: 109 to 111 °C; for `Cc1nc2c3c(ccn2c1C)[C@@H](O)[C@@](C)(O)[C@@H](c1ccccc1)N3`: 180 °C; for `CNc1nc(C)c(C(=O)c2ccc(N)c([N+](=O)[O-])c2)s1`: 260 to 261 °C.
For `CC(CCC(=O)C(C)(C)O)C1CCC2C3=CC=C4CC(O)CCC4(C)C3CCC21C` (stereo unspecified), the melting point is 150 to 152 °C.
`CON=Cc1ccc(N2C(=O)C(O)=C(C(=O)c3ccc(OC)cc3)C2c2ccccc2)cc1` (stereo unspecified) gave a melting point of 226 to 229 °C.
The same measure for `O=C(NCCO)/C(=C/c1ccc(C(F)(F)F)cc1F)NC(=O)c1ccc(OCCC(F)(F)F)cc1`: 203 to 205 °C; for `COc1ccccc1NC(=O)Nc1nc(Nc2ccccc2-c2ccccc2)nc(N(CCC(=O)O)Cc2ccccc2C(F)(F)F)n1`: 216 to 219 °C.
In turn, `CCCCCS(=O)(=O)NC(=O)CCCc1cc(OCCCC)nn1Cc1ccc(Cl)cc1Cl` had a melting point of 121 to 122 °C.
In turn, `Sc1nc(CCCc2cc(Cl)cc(Cl)c2)c[nH]1` yielded a melting point of 98 to 99 °C.
Turning to `c1ccc(-c2nnn[nH]2)c(-c2ccc(CNc3ccnc4ccnn34)cc2)c1`, the melting point was in the range of 150 to 155 °C.
Turning to `O=C1C2CC(F)CCN2C(=O)N1c1ncc(Cl)cc1F` (stereo unspecified), the melting point was in the range of 154 to 157 °C.
The same measure for `CC(CO)(CO)NCc1c2ccccc2cc2cc3ccccc3cc12`: 198 to 199 °C; for `COc1ccc(C(=O)COc2ccc3oc(C(=O)c4ccc(OC)cc4)c(C)c3c2)cc1`: 155 to 157 °C.
Next, `CCC(=O)C1=C(O)CC(c2ccc3c(c2)CCC3)CC1=O` (stereo unspecified): 98 °C.
The molecule `COc1ccccc1N1CCN(CCNc2ccccc2[N+](=O)[O-])CC1` displayed a melting point of 117 to 118 °C.
The same measure for `CC(=O)c1ccc(C2=CC3CCCC3C2=O)cc1` (stereo unspecified): 76 to 77 °C; for `CN(C)c1c(S(=O)C(F)(F)F)c(-c2ncon2)nn1-c1c(Cl)cc(C(F)(F)F)cc1Cl` (stereo unspecified): 82 to 84 °C; for `O=C(Nc1ccc(F)cc1)C12CC3CC(CC(C3)C1)C2`: 170 to 171 °C.
The same measure for `C#CC[C@]12CCC(=O)C=C1CC[C@@H]1[C@@H]2CC[C@]2(C)C(=O)CC[C@@H]12`: 174 to 175 °C.
On to `Cc1nc(SCC(N)=O)nc(C)c1Br`, for which the melting point is 175 to 177 °C.
Next, `CCCn1c(=O)n(Cc2ccccc2)c(=O)c2nc(-c3ccc(/C=C/C(=O)O)cc3)[nH]c21`: above 300 °C; `CCC(Cc1ccccc1-c1ccccc1)C(=O)O` (stereo unspecified): 91.2 to 94 °C; `CC1=C(C(=O)CCl)C2(C)CCC3C(CC=C4CC(O)CCC43C)C2C1` (stereo unspecified): 170 to 172 °C.
Take `COc1ccc2c3c(c(=O)oc2c1)CN(Cc1ccc(C(F)(F)F)cc1)CC3`: the melting point lay in the range of 203 to 206 °C.

The record behind these values is a melting point compilation (Tetko et al.; mined from patent text by program, amines drawn as free bases though some values may be those of a salt).
